Experimental data reported in PMC10526264, “VprBP/DCAF1 Triggers Melanomagenic Gene Silencing through Histone H2A Phosphorylation” (Biomedicines, 2023).

Target: VprBP/DCAF1 (Vpr binding protein) (Homo sapiens, UniProt Q9Y4B6)
Test: Western blot of H2AT120p (VprBP substrate mark) in G361 and MeWo melanoma cells treated […] h with […] B32B3
Assay type: cell-based

Chain of VprBP/DCAF1 (Vpr binding protein) (Q9Y4B6 whole entry): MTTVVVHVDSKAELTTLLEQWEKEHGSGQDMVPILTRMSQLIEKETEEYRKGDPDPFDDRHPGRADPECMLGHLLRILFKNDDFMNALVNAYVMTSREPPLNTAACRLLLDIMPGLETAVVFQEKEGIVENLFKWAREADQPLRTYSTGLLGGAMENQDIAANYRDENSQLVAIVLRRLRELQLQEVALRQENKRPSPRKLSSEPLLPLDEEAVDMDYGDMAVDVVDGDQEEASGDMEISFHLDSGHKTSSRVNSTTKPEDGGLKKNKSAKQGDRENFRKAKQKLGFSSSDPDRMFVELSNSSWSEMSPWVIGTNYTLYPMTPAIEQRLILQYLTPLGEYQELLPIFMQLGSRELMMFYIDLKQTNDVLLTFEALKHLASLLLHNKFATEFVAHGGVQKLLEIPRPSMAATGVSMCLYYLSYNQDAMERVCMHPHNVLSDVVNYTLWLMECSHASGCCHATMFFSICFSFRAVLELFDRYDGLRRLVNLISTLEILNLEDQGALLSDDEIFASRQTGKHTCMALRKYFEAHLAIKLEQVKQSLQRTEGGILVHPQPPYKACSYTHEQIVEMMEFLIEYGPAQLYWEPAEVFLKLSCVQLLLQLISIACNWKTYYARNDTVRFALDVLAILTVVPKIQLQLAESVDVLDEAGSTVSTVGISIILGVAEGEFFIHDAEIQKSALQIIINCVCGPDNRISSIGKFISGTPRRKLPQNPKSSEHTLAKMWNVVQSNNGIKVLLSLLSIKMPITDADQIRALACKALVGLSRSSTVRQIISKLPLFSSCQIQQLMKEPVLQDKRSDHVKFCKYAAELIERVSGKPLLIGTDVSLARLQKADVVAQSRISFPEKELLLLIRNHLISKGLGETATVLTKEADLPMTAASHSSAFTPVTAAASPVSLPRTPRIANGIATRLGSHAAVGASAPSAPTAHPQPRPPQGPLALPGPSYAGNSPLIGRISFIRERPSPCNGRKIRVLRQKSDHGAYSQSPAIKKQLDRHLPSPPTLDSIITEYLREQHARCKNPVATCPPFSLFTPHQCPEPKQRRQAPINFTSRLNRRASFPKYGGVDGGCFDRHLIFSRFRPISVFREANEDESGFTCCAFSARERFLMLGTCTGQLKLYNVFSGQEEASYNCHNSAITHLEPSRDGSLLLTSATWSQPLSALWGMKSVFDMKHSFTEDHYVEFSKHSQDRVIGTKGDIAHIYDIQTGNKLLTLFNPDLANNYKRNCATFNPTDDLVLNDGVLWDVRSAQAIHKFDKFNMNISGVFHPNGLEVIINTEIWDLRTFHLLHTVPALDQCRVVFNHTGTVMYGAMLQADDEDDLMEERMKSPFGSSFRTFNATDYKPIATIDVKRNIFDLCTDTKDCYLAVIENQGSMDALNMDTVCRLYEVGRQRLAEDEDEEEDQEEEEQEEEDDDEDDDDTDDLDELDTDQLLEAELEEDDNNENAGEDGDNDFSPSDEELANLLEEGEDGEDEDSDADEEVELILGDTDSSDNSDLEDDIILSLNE

How did the IC50 turn out when `C(=N\Nc1ncnc2sc3c(c12)CCCC3)/c1c[nH]c2ccccc12` [B32B3] was run?
The IC50 was 100 nM.
